Experiments:
[1] = test system: cAMP stimulated acid secretion, mouse gastric glands; experiment: cAMP stimulated acid secretion (14C-aminopyrine accumulation) in isolated mouse gastric glands; assay type: cell-based; conditions: 100 μM, 60 min, 37° C.
Method: (§1) Acid secretion is measured indirectly by the accumulation of the weak base ^14 C-aminopyrine in the isolated murine gastric glands of mouse. The assay is performed in polypropylene eppendorf tubes containing 0.5 mL of resuspended mouse gastric glands. In addition, tubes contain the tested drug, acid secretagogues (e.g. histamine, di-butyryl cyclic AMP (cAMP), carbachol) and ^14 C-aminopyrine. Tubes are incubated for 60 min. at 37° C. and continuously rotated. The reaction is stopped by centrifugation of the gland suspension for five min. at 1500 g. Supernatant is aspirated leaving the pellet containing intact gastric glands. The pellet is washed extensively and digested overnight in 1 mL of Protosol (Amersham). After neutralisation with acetic acid and addition of scintillation fluid, the radioactivity is counted in a beta-counter (Beckman). The amount of radioactivity trapped in the pellet corresponds directly with the amount of acid being secreted. Each experimental point is done in triplicate. In each experiment, energy independent consumption was estimated with 0.1 mM of dinitrophenol and basal acid secretion in the absence of acid stimulants. These values were then subtracted from corresponding results in order to calculate basal or secretagogue stimulated acid secretion. […] Each experiment is repeated a number of times and all results are expressed as a % of the maximum stimulation.

[2] = test system: histamine stimulated acid secretion, mouse gastric glands; experiment: Histamine stimulated acid secretion (14C-aminopyrine accumulation) in isolated mouse gastric glands; assay type: cell-based; conditions: 100 μM, 60 min, 37° C.
Method: as §1

[3] = test system: gastric acid secretion, mouse gastric glands; experiment: In vitro inhibition of gastric acid secretion (14C-aminopyrine accumulation) in isolated mouse gastric glands, secretagogue not stated; assay type: cell-based; conditions: 1 h, 60 min, 37° C., read-out: ED50 (the source's name)
[4] = Reaction with phenethyl mercaptan in methanol (chemical model of proton pump thiol reactivity); conditions: for conversion to 2-mercaptobenzimidazole on reaction with phenethyl mercaptan / time after which reaction with phenethyl mercaptan is complete: methanol
Source text: A useful in vitro model for obtaining an indication of the reactivity of thiadiazole compound towards the proton pump enzyme for deactivation thereof is provided by the reactivity of the thiadiazole compound towards phenethylmercaptan. The chemical mechanism of this process, as applied to the thiadiazolobenzimidazole compounds of the present invention, is diagrammatically illustrated on FIG. 3 of the accompanying drawings. The first stage of reaction forms a disulfide compound by cleavage of the S--N bond of the thiadiazole ring. This disulfide X cannot be isolated, since it reacts very rapidly with a second mercaptan group to give the disulfide of phenethylmercaptan and intermediate XI. In connection with the actual enzyme, the second step involving attack of another thiol group would not happen because of steric factors inhibiting the approach of two enzymes, or would lead to the formation of a disulfide bond in the event that another proximal thiol group is present. In both cases, this would lead to the inhibition of the enzyme. In some cases, intermediate XI further degrades to 2-mercaptobenzimidazole VIII or 1-cyano-2-mercaptobenzimidazole XII. A similar mechanism is followed by the imidazothiadiazoles of the present invention. Further description and discussion of this reaction and test method is included in the specific example section hereof.
To a solution of 23 mg of 3-(dimethylamino)-1,2,4-thiadiazolo[4,5-a]benzimidazole in 10 mL of methanol was added 360 μL of phenethyl mercaptan. After 1 min, the reaction is complete. The solvent was evaporated and the crude material was purified by chromatography to give 15 mg of N^1, N^1 -dimethyl-2-mercapto-1-benzimidazolylamidine: ^1 H NMR (DMSO-d6) δ 7.3-7.0 (m, 4H, 4×ArH), 3.35 (br s, 2H, NH, SH), 2.88 (s, 6H, 2×NCH3) ppm; IR (KBr) .nu. 3210, 1641, 1475, 1452, 1407, 1319 cm^-1; MS m/z 220 (M+), 150 (M^+ -Me2 NC=NH).
To a solution of 23 mg of 3-methoxy-1,2,4-thiadiazolo [4,5-a]benzimidazole in 10 mL of methanol was added 376 μL of phenethyl mercaptan. After 1 min, the reaction is complete. The methyl 2-mercapto-1-benzimidazolecarboximidate was identified as the major reaction product of the reaction: ^1 H NMR (DMSO-d6) δ 13.45 (br s, 1H, SH or NH), 9.8 (s, 1H, NH or SH), 7.7 (d, 1H, J=8 Hz, ArH), 7.35-7.2 (m, 3H, 3×ArH), 3.95 (s, 3H, OCH3) ppm; IR (KBr) .nu. 3437, 3095, 1679, 1450, 1440, 1376, 1193, 735 cm^-1; MS m/z=207 (M^+), 150 (M^+ -MeOC=NH)
To a suspension of 26 mg of 3-(oxophenylmethyl)-1,2,4-thiadiazolo[4,5-a]benzimidazole in 10 mL methanol was added 31 μL of phenethyl mercaptan.
To a suspension of 25 mg of 3-[hydroxy(4-methoxy-3,5-dimethyl-2-pyridyl)methyl]-1,2,4-thiadiazolo[4,5- a]benzimidazole in 10 mL methanol was added 250 μL of phenethyl mercaptan.
To a suspension of 31 mg of 3-[(4-methylphenyl) sulfonyl]-1,2,4-thiadiazolo[4,5-a]benzimidazole in 10 mL methanol was added 313 μL of phenethyl mercaptan.
Phenethyl mercaptan (120 μL, 0.90 mmol) was added to a suspension of 3-[(4-4-methoxy-3,5-dimethyl-2-pyridyl) oxomethyl]-1,2,4-thiadiazolo[4,5-a]benzimidazole (300 mg, 0.887 mmol) in methanol (150 ml) and 0.1 M hydrochloric acid (38 mL). After stirring the mixture at room temperature for 51 h, the mixture was neutralized to pH 6 with aqueous sodium bicarbonate and extracted with ethyl ether. The ether layer was dried on sodium sulfate and evaporated.

[5] = Reaction of 1,2,4-thiadiazolo[4,5-a]benzimidazole derivative with 2-mercaptoethanol, determination of t1/2 values; conditions: compound 5×10^-3 M, 2-mercaptoethanol 1.15×10^-2 M, methanol, R.T., HPLC; 5000 µM
Method: The column is eluted with 70% 50 mM ammonium acetate; 30% acetonitrile as the mobile phase.
Percentage reaction completion was calculated as follows:
At time 0, 100% starting material remained unreacted.
At time t, % of unreacted starting material={hsample /hint.std at
time t}/{hsample /hint.std at time O}*100%.

[6] = Acid stability in 6 molar hydrochloric acid; assay type: physicochemical; conditions: minimum methanol, room temperature
Method: To examine acid stability of the captioned compound, the compound was dissolved in a minimum volume of methanol and the resulting solution was added to a 6 molar solution of hydrochloric acid.

gastric acid secretion [7] = experiment: Meal (8% peptone)-stimulated gastric acid secretion in rats; assay type: in vivo, Sprague-Dawley rats; conditions: rat, oral gavage, 300 μmol/kg
Method: Fasted, adult (140-240 g), male, Sprague-Dawley rats were fasted for 24 h from food, but not water, and then treated by oral gavage with 1 to 1.5 mL total volume of compound of Formula I (300 μmmol/Kg) on different days. Two hours later, rats were anesthetized with a combination of pentobartital and thiopental, the abdomen was opened and the pylorus was ligated, and tracheal, gastric, and peripheral venous canulas were placed. The stomachs were lavaged with 10 mL 0.9% saline every 10 min. for 30 min and the gastric effluent collected in receptacles to determine the basal acid secretion. Acid output was determined in each gastric effluent sample by back-titration to pH 7.0 using 0.02M NaOH. Then, 5 mL of an 8% peptone meal (pH 5.5) was instilled into the stomachs, mixed, and drained after 10 min each time for 2 hours. Acid output was determined in each gastric effluent containing the peptone meal by back-titration to pH 5.5 using 0.02 M NaOH.

gastric acid secretion [8] = experiment: Histamine-stimulated gastric acid secretion in anesthetized rats (dose-dependent study); assay type: in vivo, Sprague-Dawley rats; conditions: rat, oral gavage, at 3, 30, 300 μmol/kg doses; histamine 5 mg/kg i.v. infusion 2 h
Method: Fasted, adult (140-240 g), male, Sprague-Dawley rats were fasted for 24 h from food, but not water, and then treated by oral gavage with 1 to 1.5 mL total volume of 4 different doses (0.3, 3, 30, and 300 μmol/kg) of each compound on different days. Two hours later, rats were anesthetized with a combination of pentobartital and thiopental, the abdomen was opened and the pylorus was ligated, and tracheal, gastric, and peripheral venous canulas were placed. The stomachs were lavaged with 10 mL 0.9% saline every 10 min. for 30 min and the gastric effluent collected in receptacles. Acid output was determined in each gastric effluent sample by back-titration to pH 7.0 using 0.02M NaOH. Then, 5 mL of an 8% peptone meal (pH 5.5) was instilled into the stomachs, mixed, and drained after 10 min each time for 2 hours. Acid output was determined in each gastric effluent sample by back-titration to pH 7.0 using 0.02 M NaOH. After measuring basal acid output for at least 30 minutes, acid output was then measured during a 2 h intravenous infusion of histamine (5 mg/kg).

Solubility in water = assay type: physicochemical
gastric acid secretion [9] = experiment: Suppression of gastric acid secretion in animal model; assay type: in vivo

CN1CCN(c2nsc3nc4ccccc4n23)CC1.Cl.Cl [3-(4-methyl-1-piperazinyl)-1,2,4-thiadiazolo[4,5-a]benzimidazole dihydrochloride]
inhibition of cAMP stimulated acid secretion [1]: completely inhibited | inhibition of histamine stimulated acid secretion [2]: completely inhibited | IC50 [3]: 50 µM

O=C(c1ccccc1)c1nsc2nc3ccccc3n12 [3-(oxophenylmethyl)-1,2,4-thiadiazolo[4,5-a]benzimidazole]
conversion to 2-mercaptobenzimidazole on reaction with phenethyl mercaptan [4]: complete conversion

COc1c(C)cnc(C(=O)c2nsc3nc4ccccc4n23)c1C [3-[(4-methoxy-3,5-dimethyl-2-pyridyl)oxomethyl]-1,2,4-thiadiazolo[4,5-a]benzimidazole]
recovered starting material after reaction with phenethyl mercaptan ([4]; methanol and 0.1 M hydrochloric acid, room temperature, 51 h): 14.6%

Cc1ccc(S(=O)(=O)c2nsc3nc4ccccc4n23)cc1 [3-[(4-methylphenyl)sulfonyl]-1,2,4-thiadiazolo[4,5-a]benzimidazole]
conversion to 2-mercaptobenzimidazole on reaction with phenethyl mercaptan [4]: complete conversion

COc1c(C)cnc(C(O)c2nsc3nc4ccccc4n23)c1C (stereo not shown) [3-[hydroxy(4-methoxy-3,5-dimethyl-2-pyridyl)methyl]-1,2,4-thiadiazolo[4,5-a]benzimidazole]
conversion to 2-mercaptobenzimidazole on reaction with phenethyl mercaptan [4]: complete conversion

CN1CCN(c2nsc3nc4ccccc4n23)CC1 [4-methylpiperazinyl, 3-(4-methyl-1-piperazinyl)-1,2,4-thiadiazolo-[4,5-a]benzimidazole]
t1/2 at pH = 7.0 [5]: 6.7 h

COc1ccc2c(c1)nc1snc(C(=O)c3ncc(C)c(OC)c3C)n12 [7-methoxy-3-[(4-methoxy-3,5-dimethyl-2-pyridyl)oxomethyl]-1,2,4-thiadiazolo[4,5-a]benzimidazole]
acid stability [6]: very stable in acid and was totally recovered after stirring for 48 hours at room temperature | inhibition of meal-stimulated acid secretion (gastric acid secretion [7]): significant (p<0.05) inhibition | acid output after 1 h (gastric acid secretion [7]; 8% peptone stimulated, after 1 h): 20 μmmol/30 min | inhibition of histamine-stimulated acid secretion (gastric acid secretion [8]): significant (p<0.05) inhibition | solubility in water (Solubility in water): limited solubility in water | suppression of gastric acid secretion (gastric acid secretion [9]): active in the suppression of gastric acid secretion

c1ccc(-c2nsc3nc4ccccc4n23)nc1 [Example 2-pyridyl, 3-(2-pyridyl)-1,2,4-thiadiazolo[4,5-a]benzimidazole]
t1/2 at pH = 7.0 [5]: 134 h

CN(C)c1nsc2nc3ccccc3n12 [Me2 N, 3-(dimethylamino)-1,2,4-thiadiazolo[4,5-a]benzimidazole]
time after which reaction with phenethyl mercaptan is complete [4]: ≤ 1 min | t1/2 at pH = 7.0 [5]: 1.5 h

COc1nsc2nc3ccccc3n12 [MeO, 3-methoxy-1,2,4-thiadiazolo[4,5-a]benzimidazole]
time after which reaction with phenethyl mercaptan is complete [4]: ≤ 1 min | t1/2 at pH = 7.0 [5]: 0.31 h

COc1ccc2[nH]c([S+]([O-])Cc3ncc(C)c(OC)c3C)nc2c1 (stereo not shown) [Omeprazole, reference compound]
acid stability [6]: complete decomposition in a few minutes

CC(=O)c1nsc2nc3ccccc3n12 [acetyl, 3-(1-oxoethyl)-1,2,4-thiadiazolo[4,5-a]benzimidazole]
t1/2 at pH = 7.0 [5]: 110 h

Cc1nsc2nc3ccccc3n12 [methyl, 3-methyl-1,2,4-thiadiazolo[4,5-a]benzimidazole]
t1/2 at pH = 7.0 [5]: 59 h

c1ccc2c(c1)nc1snc(N3CCOCC3)n12 [morpholino, 3-(4-morpholinyl)-1,2,4-thiadiazolo[4,5-a]benzimidazole]
t1/2 at pH = 7.0 [5]: 2.4 h

c1ccc2c(c1)nc1snc(CN3CCOCC3)n12 [morpholinomethyl, 3-(morpholinomethyl)-1,2,4-thiadiazolo[4,5-a]benzimidazole]
t1/2 at pH = 7.0 [5]: 98 h

c1ccc(-c2nsc3nc4ccccc4n23)cc1 [phenyl]
t1/2 at pH = 7.0 [5]: 45 h
